According to patent publication US20240294531A1, “COVALENT HETEROCYCLES AND USES THEREOF” (Kumquat Biosciences Inc., priority 2022, published 2024):
pIC50: −log10 of the molar value.

How the values were obtained:
BTK wildtype protein = BTK wildtype protein (Homo sapiens (Human), UniProt Q06187); assay: BTK wildtype HTRF displacement assay; assay type: binding; settings: 1-hour incubation; read-out: BTK (wt) IC50
Outline: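 Tracer-displacement HTRF format: compound and tracer 239 compete at the BTK active site, detected via anti-GST-Tb on GST-tagged full-length enzyme. One-hour room-temperature incubation; compounds dosed at six four-fold steps down from 5 μM. Percent inhibition versus DMSO gives IC50 by constrained four-parameter logistic fit.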

BTK C481S protein = BTK C481S protein (Homo sapiens (Human), UniProt Q06187, C481S); assay: BTK C481S HTRF displacement assay; assay type: binding; settings: 1-hour incubation
Outline: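 Tracer displacement read by HTRF after 1 hour at room temperature: GST-BTK C481S 2-659, 50 nM tracer 239 (Kd 54 nM), anti-GST antibody, compound in six four-fold doses from 5 μM. Percent inhibition versus DMSO fitted (bottom 0, top 100) for IC50, converted to KI via Cheng-Prusoff.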

BTK wildtype protein, sequence (Q06187 2-659): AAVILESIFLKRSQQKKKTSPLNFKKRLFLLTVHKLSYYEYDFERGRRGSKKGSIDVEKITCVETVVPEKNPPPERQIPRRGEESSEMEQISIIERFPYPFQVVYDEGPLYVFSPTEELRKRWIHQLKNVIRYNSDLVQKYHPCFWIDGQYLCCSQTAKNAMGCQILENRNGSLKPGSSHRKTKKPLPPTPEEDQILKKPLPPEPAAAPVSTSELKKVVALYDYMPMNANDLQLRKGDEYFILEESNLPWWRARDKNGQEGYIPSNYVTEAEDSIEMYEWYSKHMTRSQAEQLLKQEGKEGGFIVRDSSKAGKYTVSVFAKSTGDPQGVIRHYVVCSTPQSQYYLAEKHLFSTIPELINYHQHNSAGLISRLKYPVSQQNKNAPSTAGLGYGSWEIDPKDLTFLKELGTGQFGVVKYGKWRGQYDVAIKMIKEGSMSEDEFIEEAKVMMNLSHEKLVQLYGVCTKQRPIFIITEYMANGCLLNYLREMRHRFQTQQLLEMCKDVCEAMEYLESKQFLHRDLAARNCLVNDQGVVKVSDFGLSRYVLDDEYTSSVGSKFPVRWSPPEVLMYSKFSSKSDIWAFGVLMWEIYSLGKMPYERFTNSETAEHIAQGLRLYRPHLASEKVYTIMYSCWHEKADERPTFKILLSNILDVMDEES
BTK C481S protein, sequence (Q06187 2-659 C481S): as the sequence (Q06187 2-659) above, with C480S counted along it

Compound	pIC50 (BTK wildtype protein)	pIC50 (BTK C481S protein)
COc1ccc(F)cc1C(=O)NCc1ccc(-c2nn(CC3CCCCN(C(=O)n4cncn4)C3)c(N)c2C(N)=O)cc1 (centres unmarked) [Compound 296, 1-((1-(1H-1,2,4-triazole-1-carbonyl)azepan-3-yl)methyl)-5-amino-3-(4-((5-fluoro-2-methoxybenzamido)methyl)phenyl)-1H-pyrazole-4-carboxamide]	≥ 6.00	≥ 6.00
CN(C(=O)n1cncn1)[C@@H]1CCC[C@H](n2nc(-c3ccc(Oc4ccccc4)cc3)c(C(N)=O)c2N)C1 [Compound 297, N-((1R,3S)-3-(5-amino-4-carbamoyl-3-(4-phenoxyphenyl)-1H-pyrazol-1-yl)cyclohexyl)-N-methyl-1H-1,2,4-triazole-1-carboxamide]	≥ 6.00	≥ 6.00
COc1ccc(F)cc1C(=O)NCc1ccc(-c2nn(CC3CC(O)CCN3C(=O)n3cncn3)c3ncnc(N)c23)cc1 (centres unmarked) [Compound 298, N-(4-(4-amino-1-((4-hydroxy-1-(1H-1,2,4-triazole-1-carbonyl)piperidin-2-yl)methyl)-1H-pyrazolo[3,4-d]pyrimidin-3-yl)benzyl)-5-fluoro-2-methoxybenzamide]	< 6.00	< 6.00
CN(C(=O)n1cnc(Cl)n1)C1CCC(n2nc(-c3ccc(Oc4ccccc4)cc3)c3c(N)ncnc32)CC1 (centres unmarked) [Compound 299, N-(4-(4-amino-3-(4-phenoxyphenyl)-1H-pyrazolo[3,4-d]pyrimidin-1-yl)cyclohexyl)-3-chloro-N-methyl-1H-1,2,4-triazole-1-carboxamide]	≥ 6.00	≥ 6.00
COc1nn(C)cc1Nc1nc(N2CCCC(N(C)C(=O)n3cncn3)C2)nc2c1ncn2C (centres unmarked) [Compound 300, N-(1-(6-((3-methoxy-1-methyl-1H-pyrazol-4-yl)amino)-9-methyl-9H-purin-2-yl)piperidin-3-yl)-N-methyl-1H-1,2,4-triazole-1-carboxamide]	< 6.00	≥ 6.00
CC(C)[C@@H](C1CCNc2c(C(N)=O)c(-c3ccc(Oc4ccccc4)cc3)nn21)N(C)C(=O)n1cncn1 (stereo partly drawn) [Compound 301, 7-((S)-2-methyl-1-(N-methyl-1H-1,2,4-triazole-1-carboxamido)propyl)-2-(4-phenoxyphenyl)-4,5,6,7-tetrahydropyrazolo [1,5-a]pyrimidine-3-carboxamide]	< 6.00	< 6.00
COc1ccc(F)cc1C(=O)NCc1ccc(-c2nn(C(C)CCN(C)C(=O)n3cncn3)c3ncnc(N)c23)cc1 (centres unmarked) [Compound 303, N-(3-(4-amino-3-(4-((5-fluoro-2-methoxybenzamido)methyl)phenyl)-1H-pyrazolo[3,4-d]pyrimidin-1-yl)butyl)-N-methyl-1H-1,2,4-triazole-1-carboxamide]	≥ 6.00	≥ 6.00
COc1ccc(F)cc1C(=O)NCc1ccc(-c2nn(C(C)C3CCCCN3C(=O)n3cncn3)c3ncnc(N)c23)cc1 (centres unmarked) [Compound 304, N-(4-(1-(1-(1-(1H-1,2,4-triazole-1-carbonyl)piperidin-2-yl)ethyl)-4-amino-1H-pyrazolo[3,4-d]pyrimidin-3-yl)benzyl)-5-fluoro-2-methoxybenzamide]	≥ 6.00	≥ 6.00
CN(C(=O)n1cncn1)c1ccccc1C1CCNc2c(C(N)=O)c(-c3ccc(Oc4ccccc4)cc3)nn21 (centres unmarked) [Compound 305, 7-(2-(N-methyl-1H-1,2,4-triazole-1-carboxamido)phenyl)-2-(4-phenoxyphenyl)-4,5,6,7-tetrahydropyrazolo[1,5-a] pyrimidine-3-carboxamide]	< 6.00	< 6.00
NC(=O)c1c(-c2ccc(Oc3ccccc3)cc2)nn2c1NCC1CN(C(=O)n3cncn3)CCC12 (centres unmarked) [Compound 306, 2-(4-phenoxyphenyl)-7-(1H-1,2,4-triazole-1-carbonyl)-4,5,5a,6,7,8,9,9a-octahydropyrazolo[1,5-a]pyrido[3,4-e]pyrimidine-3-carboxamide]	≥ 6.00	≥ 6.00
